Data: PMC12709667 (Journal of Clinical Pharmacology, 2025)

Experiments:
UGT1A1 = target: T1, UGT1A1 (Homo sapiens, UniProt P22309); assay: DDI perpetrator study: dolutegravir probe; type: in vivo; details: human, plasma, oral, 50 mg; for AUC: dolutegravir, probe alone (day 1), geometric mean
T1 sequence (P22309 26-533): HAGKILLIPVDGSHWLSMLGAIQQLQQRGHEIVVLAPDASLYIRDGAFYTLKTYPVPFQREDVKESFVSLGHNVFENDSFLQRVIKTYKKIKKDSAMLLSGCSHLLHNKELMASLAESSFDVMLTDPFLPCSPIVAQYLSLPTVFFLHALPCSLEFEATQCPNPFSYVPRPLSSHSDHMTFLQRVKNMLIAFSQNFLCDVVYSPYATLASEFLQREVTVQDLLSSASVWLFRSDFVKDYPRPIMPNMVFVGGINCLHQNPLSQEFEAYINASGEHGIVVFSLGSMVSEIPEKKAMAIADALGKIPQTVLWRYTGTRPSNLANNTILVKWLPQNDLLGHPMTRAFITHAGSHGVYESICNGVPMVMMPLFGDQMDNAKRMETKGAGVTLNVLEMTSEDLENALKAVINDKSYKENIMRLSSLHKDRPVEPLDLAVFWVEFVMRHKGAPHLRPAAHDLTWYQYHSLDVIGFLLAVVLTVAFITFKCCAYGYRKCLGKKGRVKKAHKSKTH

CYP3A4 = assay: clinical; details: human, plasma, oral; for AUC: geometric mean
CYP2C8 = target: T2, CYP2C8 (Homo sapiens, UniProt P10632); assay: DDI perpetrator study: repaglinide probe; type: in vivo; details: human, plasma, oral, 0.5 mg; for AUC: repaglinide, probe alone (day 1), geometric mean
T2 sequence (P10632 1-490): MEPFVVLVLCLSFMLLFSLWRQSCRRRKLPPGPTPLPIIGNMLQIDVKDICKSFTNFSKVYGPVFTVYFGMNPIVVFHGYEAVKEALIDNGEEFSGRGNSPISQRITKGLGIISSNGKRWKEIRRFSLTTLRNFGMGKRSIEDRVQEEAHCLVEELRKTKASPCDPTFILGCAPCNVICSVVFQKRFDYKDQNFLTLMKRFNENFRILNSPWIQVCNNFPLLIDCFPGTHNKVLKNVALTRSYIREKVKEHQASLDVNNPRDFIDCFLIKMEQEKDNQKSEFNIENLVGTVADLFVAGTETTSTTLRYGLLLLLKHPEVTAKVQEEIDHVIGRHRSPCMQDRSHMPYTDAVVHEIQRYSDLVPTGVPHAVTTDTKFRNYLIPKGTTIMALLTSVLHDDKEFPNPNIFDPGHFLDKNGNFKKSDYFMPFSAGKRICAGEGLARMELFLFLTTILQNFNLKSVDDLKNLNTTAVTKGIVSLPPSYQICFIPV

BCRP = target: T3, BCRP (Homo sapiens, UniProt Q9UNQ0); assay: DDI perpetrator study: rosuvastatin probe; type: in vivo; details: human, plasma, oral, 10 mg; for AUC: rosuvastatin, probe alone (day 1), geometric mean
T3 sequence (Q9UNQ0 1-655): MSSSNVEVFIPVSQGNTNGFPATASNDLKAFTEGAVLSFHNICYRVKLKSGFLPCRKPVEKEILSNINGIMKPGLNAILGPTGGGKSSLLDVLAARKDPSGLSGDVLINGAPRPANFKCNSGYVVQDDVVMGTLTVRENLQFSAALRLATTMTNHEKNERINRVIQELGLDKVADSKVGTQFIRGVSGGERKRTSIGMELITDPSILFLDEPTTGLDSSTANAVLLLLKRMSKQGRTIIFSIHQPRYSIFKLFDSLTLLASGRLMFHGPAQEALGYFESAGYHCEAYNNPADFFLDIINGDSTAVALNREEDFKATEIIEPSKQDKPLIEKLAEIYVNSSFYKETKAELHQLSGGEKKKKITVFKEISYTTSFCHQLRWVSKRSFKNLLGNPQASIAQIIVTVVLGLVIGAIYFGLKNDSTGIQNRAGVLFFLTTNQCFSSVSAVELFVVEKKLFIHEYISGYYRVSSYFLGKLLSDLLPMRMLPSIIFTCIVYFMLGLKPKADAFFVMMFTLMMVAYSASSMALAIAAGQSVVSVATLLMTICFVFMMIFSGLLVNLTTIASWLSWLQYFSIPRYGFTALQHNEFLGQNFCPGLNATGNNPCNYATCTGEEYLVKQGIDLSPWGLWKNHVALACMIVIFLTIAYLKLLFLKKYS

## C[C@@H]1CCO[C@H]2Cn3cc(C(=O)NCc4ccc(F)cc4F)c(=O)c(O)c3C(=O)N12 [Dolutegravir]
UGT1A1
  Cmax: 2590 ng/mL
UGT1A1; AUC0‐inf
  AUC: 46300 ng·h/mL
UGT1A1; AUC0‐last
  AUC: 44600 ng·h/mL

## Cc1ncc2n1-c1ccc(Cl)cc1C(c1ccccc1F)=NC2 [Midazolam]
CYP3A4; 2.5 mg
  Cmax: 8.42 ng/mL
CYP3A4; 2.5 mg, AUC0‐inf, midazolam, probe alone (day 1)
  AUC: 39.5 ng·h/mL
CYP3A4; 2.5 mg, AUC0‐last, midazolam, probe alone (day 1)
  AUC: 37.5 ng·h/mL
CYP3A4; AUC0‐inf, midazolam + miricorilant (day 10)
  AUC: 34.7 ng·h/mL

## CCOc1cc(CC(=O)N[C@@H](CC(C)C)c2ccccc2N2CCCCC2)ccc1C(=O)O [Repaglinide]
CYP2C8
  Cmax: 2.94 ng/mL
CYP2C8; AUC0‐inf
  AUC: 7.27 ng·h/mL
CYP2C8; AUC0‐last
  AUC: 6.68 ng·h/mL

## CC(C)c1nc(N(C)S(C)(=O)=O)nc(-c2ccc(F)cc2)c1/C=C/[C@@H](O)C[C@@H](O)CC(=O)O [Rosuvastatin]
BCRP
  Cmax: 2.35 ng/mL
BCRP; AUC0‐inf
  AUC: 20.7 ng·h/mL
BCRP; AUC0‐last
  AUC: 17.1 ng·h/mL
